Reference: ChEMBL document CHEMBL1201862, “PubChem BioAssay data set” (2004)
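Tested at 5 concentrations; 48 h exposure; 96-well plates; endpoints linearly interpolated, else capped at highest concentration. The concentration for 50% growth inhibition is given as GI50.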 Calls of active or inactive are those of the source. No stated cut-off is given here; in the data, active = GI50 up to about 1.1 µM and inactive = higher.

What was measured:
Test in all cases: inhibition of tumour cell growth, NCI panel, 48 h
786-0 = test system: 786-0
A498 = test system: A498
A549 = test system: A549
ACHN = test system: ACHN
CAKI-1 = test system: CAKI-1
CCRF-CEM = test system: CCRF-CEM
COLO 205 = test system: COLO 205
DLD-1 = test system: DLD-1
DMS-114 = test system: DMS-114
DMS-273 = test system: DMS-273
EKVX = test system: EKVX
HCC 2998 = test system: HCC 2998
HCT-116 = test system: HCT-116
HCT-15 = test system: HCT-15
HL-60 = test system: HL-60
HOP-18 = test system: HOP-18
HOP-62 = test system: HOP-62
HOP-92 = test system: HOP-92
HT-29 = test system: HT-29
IGROV-1 = test system: IGROV-1
K562 = test system: K562
KM-20L2 = test system: KM-20L2
KM12 = test system: KM12
LOX IMVI = test system: LOX IMVI
LXFL 529 = test system: LXFL 529
M14 = test system: M14
M19-MEL = test system: M19-MEL
MOLT-4 = test system: MOLT-4
Malme-3M = test system: Malme-3M
NCI-H226 = test system: NCI-H226
NCI-H23 = test system: NCI-H23
NCI-H460 = test system: NCI-H460
NCI-H522 = test system: NCI-H522
OVCAR-3 = test system: OVCAR-3
OVCAR-4 = test system: OVCAR-4
OVCAR-5 = test system: OVCAR-5
OVCAR-8 = test system: OVCAR-8
RPMI-8226 = test system: RPMI-8226
RXF 393 = test system: RXF 393
RXF 631 = test system: RXF 631
SF-268 = test system: SF-268
SF-295 = test system: SF-295
SF-539 = test system: SF-539
SK-MEL-28 = test system: SK-MEL-28
SK-MEL-2 = test system: SK-MEL-2
SK-MEL-5 = test system: SK-MEL-5
SK-OV-3 = test system: SK-OV-3
SN12C = test system: SN12C
SNB-19 = test system: SNB-19
SNB-75 = test system: SNB-75
SNB-78 = test system: SNB-78
SR = test system: SR
SW-620 = test system: SW-620
TK-10 = test system: TK-10
U-251 = test system: U-251
UACC-257 = test system: UACC-257
UACC-62 = test system: UACC-62
UO-31 = test system: UO-31
XF498 = test system: XF498

Measured: GI50

O=[N+]([O-])c1ccc(Cl)c(C2CC(c3cccc4ccccc34)=Nc3ccccc3[S+]2[O-])c1 (configuration not stated)
13.6 µM: HCT-15
inactive: 786-0 9.93 µM | A498 24.2 µM | A549 20 µM | ACHN 18.5 µM | CAKI-1 13.2 µM | CCRF-CEM 2.4 µM | COLO 205 > 56.6 µM | DLD-1 9.55 µM | DMS-114 14.9 µM | DMS-273 19.2 µM | EKVX > 57.5 µM | HCC 2998 14.8 µM | HCT-116 9.73 µM | HL-60 4.89 µM | HOP-18 24.2 µM | HOP-62 21.8 µM | HT-29 10.9 µM | IGROV-1 28.2 µM | K562 3.97 µM | KM-20L2 20.2 µM | KM12 18.9 µM | LOX IMVI 15.4 µM | LXFL 529 13.3 µM | M14 17.7 µM | M19-MEL 20.6 µM | MOLT-4 3.68 µM | Malme-3M 18.9 µM | NCI-H226 21.7 µM | NCI-H23 8.75 µM | NCI-H460 19.4 µM | NCI-H522 7.23 µM | OVCAR-3 22.6 µM | OVCAR-4 22 µM | OVCAR-5 29.5 µM | OVCAR-8 8.77 µM | RPMI-8226 2.21 µM | RXF 393 7.05 µM | RXF 631 29.4 µM | SF-268 18.4 µM | SF-295 18.2 µM | SF-539 13.7 µM | SK-MEL-28 19.4 µM | SK-MEL-2 15.1 µM | SK-MEL-5 14.4 µM | SK-OV-3 > 100 µM | SN12C 21 µM | SNB-19 29 µM | SNB-75 5.86 µM | SNB-78 11.4 µM | SR 10.5 µM | SW-620 7.85 µM | TK-10 31.8 µM | U-251 13.1 µM | UACC-257 17 µM | UACC-62 10.6 µM | UO-31 17.7 µM
active: HOP-92 0.519 µM

CC1CC2(CC[C@@H]1O)OCCO2 (some centres not stated)
> 100 µM: HCT-15
inactive: 786-0 > 100 µM | A498 > 100 µM | A549 > 100 µM | CAKI-1 > 100 µM | CCRF-CEM > 100 µM | COLO 205 > 100 µM | DLD-1 > 100 µM | DMS-273 > 100 µM | EKVX > 100 µM | HCC 2998 > 100 µM | HCT-116 > 100 µM | HL-60 > 100 µM | HOP-62 > 100 µM | HOP-92 > 100 µM | HT-29 > 100 µM | IGROV-1 > 100 µM | K562 > 100 µM | KM12 > 100 µM | LOX IMVI > 100 µM | LXFL 529 > 100 µM | M14 > 100 µM | M19-MEL > 100 µM | MOLT-4 > 100 µM | Malme-3M > 100 µM | NCI-H23 > 100 µM | NCI-H460 > 100 µM | NCI-H522 > 100 µM | OVCAR-3 > 100 µM | OVCAR-4 > 100 µM | OVCAR-8 > 100 µM | RPMI-8226 > 100 µM | RXF 393 > 100 µM | RXF 631 > 100 µM | SF-295 > 100 µM | SF-539 > 100 µM | SK-MEL-2 > 100 µM | SK-MEL-5 > 100 µM | SK-OV-3 > 100 µM | SN12C > 100 µM | SNB-19 > 100 µM | SNB-78 > 100 µM | SW-620 > 100 µM | TK-10 > 100 µM | U-251 > 100 µM | UACC-257 > 100 µM | UACC-62 > 100 µM | UO-31 > 100 µM | XF498 > 100 µM
